In ChEMBL document CHEMBL2151025, “Synthesis and structure-activity relationship of potent, selective and orally active anthranilamide-based factor Xa inhibitors: application of weakly basic sulfoximine group as novel S4 binding element” (Eur J Med Chem, 2012):
Calls of active or inactive are those of the source. The rule behind the calls is not given here.

Experiments:
Coagulation factor X [1] = target: T1, Coagulation factor X (Homo sapiens, UniProt P00742); test: Inhibition of human F10a using S-2765 as substrate at 0.1 uM after 45 mins
Plasma [2] = system: Plasma
Coagulation factor X [3] = target: T1, Coagulation factor X; test: Inhibition of human F10a using S-2765 as substrate after 45 mins
Plasma [4] = test: Anticoagulant activity in rat plasma assessed as concentration required to double prothrombin time; assay type: functional
Rattus norvegicus [5] = test: Antithrombotic activity in FeCl3-induced arterial thrombosis Wistar rat model assessed as reduction in thrombus weight at 10 mg/kg, po after 2 hrs; assay type: functional; design: scale not given: the % may be the effect or the level left
Rattus norvegicus [6] = test: Antithrombotic activity in FeCl3-induced venous thrombosis Wistar rat model assessed as reduction in thrombus weight at 10 mg/kg, po after 2 hrs; assay type: functional; design: scale not given: the % may be the effect or the level left
Coagulation factor X [7] = target: T1, Coagulation factor X; test: Inhibition of F10a assessed as S-2765 substrate hydrolysis by microplate reader analysis
Prothrombin = Prothrombin (Homo sapiens, UniProt P00734); test: Inhibition of thrombin assessed as S-2238 substrate hydrolysis by microplate reader analysis
Plasminogen = Plasminogen (Homo sapiens, UniProt P00747); test: Inhibition of plasmin assessed as S-2302 substrate hydrolysis by microplate reader analysis
[8] = target: Tissue-type plasminogen activator (Homo sapiens, UniProt P00750); test: Inhibition of tPA assessed as S-2288 substrate hydrolysis by microplate reader analysis
[9] = Inhibition of trypsin assessed as S-2222 substrate hydrolysis by microplate reader analysis
[10] = target: Vitamin K-dependent protein C (Homo sapiens, UniProt P04070); test: Inhibition of activated protein C assessed as S-2366 substrate hydrolysis by microplate reader analysis
CYP3A4 = CYP3A4 (Homo sapiens, UniProt P08684); test: Inhibition of human CYP3A4 at 10 uM; assay type: ADME
Rattus norvegicus [11] = test: Antithrombotic activity in po dosed FeCl3-induced arterial thrombosis Wistar rat model assessed as reduction in thrombus weight after 2 hrs; assay type: functional, organism-based
Rattus norvegicus [12] = test: Antithrombotic activity in po dosed FeCl3-induced venous thrombosis Wistar rat model assessed as reduction in thrombus weight after 2 hrs; assay type: functional, organism-based
Rattus norvegicus [13] = test: Antithrombotic activity in FeCl3-induced arterial thrombosis Wistar rat model assessed as reduction in thrombus weight at 30 mg/kg, po after 2 hrs; assay type: functional; design: scale not given: the % may be the effect or the level left
Plasma [14] = test: Plasma concentration in fasted Wistar rat at 30 mg/kg, po; assay type: ADME, organism-based; design: dose 30 mg/kg, route oral; details: in vivo
Rattus norvegicus [15] = test: Cmax in fasted Wistar rat assessed as 5-Chloro-N-(5-chloropyridin-2-yl)-2-(4-(N-(2-(ethyl-amino)acetyl)-S-methylsulfon imidoyl) benzamido) benzamide at 30 mg/kg, po; assay type: ADME, organism-based; design: dose 30 mg/kg, route oral; details: in vivo
Rattus norvegicus [16] = test: Tmax in fasted Wistar rat assessed as 5-Chloro-N-(5-chloropyridin-2-yl)-2-(4-(N-(2-(ethyl-amino)acetyl)-S-methylsulfon imidoyl) benzamido) benzamide at 30 mg/kg, po; assay type: ADME, organism-based; design: dose 30 mg/kg, route oral; details: in vivo
Rattus norvegicus [17] = test: Half life in fasted Wistar rat assessed as 5-Chloro-N-(5-chloropyridin-2-yl)-2-(4-(N-(2-(ethyl-amino)acetyl)-S-methylsulfon imidoyl) benzamido) benzamide at 30 mg/kg, po; assay type: ADME, organism-based; design: dose 30 mg/kg, route oral; details: in vivo
Rattus norvegicus [18] = test: AUC (0 to 24 hrs) in fasted Wistar rat assessed as 5-Chloro-N-(5-chloropyridin-2-yl)-2-(4-(N-(2-(ethyl-amino)acetyl)-S-methylsulfon imidoyl) benzamido) benzamide at 30 mg/kg, po; assay type: ADME, organism-based, Plasma; design: time < 24 hr, dose 30 mg/kg, route oral; details: in vivo
Rattus norvegicus [19] = test: Antithrombotic activity in FeCl3-induced venous thrombosis Wistar rat model assessed as reduction in thrombus weight at 30 mg/kg, po after 2 hrs; assay type: functional; design: scale not given: the % may be the effect or the level left

T1 sequence (P00742 41-179 limits assumed): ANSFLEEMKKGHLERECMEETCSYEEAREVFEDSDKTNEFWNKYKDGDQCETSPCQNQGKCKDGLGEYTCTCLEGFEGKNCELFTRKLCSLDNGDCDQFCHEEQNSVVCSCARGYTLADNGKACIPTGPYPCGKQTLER
T1 sequence (P00742 235-488 limits assumed): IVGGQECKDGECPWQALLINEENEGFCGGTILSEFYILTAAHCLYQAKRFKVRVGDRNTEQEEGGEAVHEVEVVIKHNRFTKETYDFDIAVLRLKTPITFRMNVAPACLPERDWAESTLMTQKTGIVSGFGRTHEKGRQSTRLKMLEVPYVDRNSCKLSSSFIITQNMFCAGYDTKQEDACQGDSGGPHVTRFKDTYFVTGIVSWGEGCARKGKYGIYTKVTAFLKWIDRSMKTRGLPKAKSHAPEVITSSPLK
Vitamin K-dependent protein C, sequence (P04070 43-197 limits assumed): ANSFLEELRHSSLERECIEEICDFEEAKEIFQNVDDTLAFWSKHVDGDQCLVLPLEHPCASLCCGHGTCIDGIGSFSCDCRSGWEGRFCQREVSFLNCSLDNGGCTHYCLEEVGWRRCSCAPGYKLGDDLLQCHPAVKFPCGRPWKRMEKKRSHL
Vitamin K-dependent protein C, sequence (P04070 212-461 limits assumed): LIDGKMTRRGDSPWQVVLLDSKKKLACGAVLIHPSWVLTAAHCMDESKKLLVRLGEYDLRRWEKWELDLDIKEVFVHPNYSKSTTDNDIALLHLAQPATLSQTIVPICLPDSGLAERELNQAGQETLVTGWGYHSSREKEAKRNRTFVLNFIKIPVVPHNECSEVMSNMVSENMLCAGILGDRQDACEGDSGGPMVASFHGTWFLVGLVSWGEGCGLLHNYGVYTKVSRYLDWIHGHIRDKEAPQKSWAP
Tissue-type plasminogen activator, sequence (P00750 whole entry): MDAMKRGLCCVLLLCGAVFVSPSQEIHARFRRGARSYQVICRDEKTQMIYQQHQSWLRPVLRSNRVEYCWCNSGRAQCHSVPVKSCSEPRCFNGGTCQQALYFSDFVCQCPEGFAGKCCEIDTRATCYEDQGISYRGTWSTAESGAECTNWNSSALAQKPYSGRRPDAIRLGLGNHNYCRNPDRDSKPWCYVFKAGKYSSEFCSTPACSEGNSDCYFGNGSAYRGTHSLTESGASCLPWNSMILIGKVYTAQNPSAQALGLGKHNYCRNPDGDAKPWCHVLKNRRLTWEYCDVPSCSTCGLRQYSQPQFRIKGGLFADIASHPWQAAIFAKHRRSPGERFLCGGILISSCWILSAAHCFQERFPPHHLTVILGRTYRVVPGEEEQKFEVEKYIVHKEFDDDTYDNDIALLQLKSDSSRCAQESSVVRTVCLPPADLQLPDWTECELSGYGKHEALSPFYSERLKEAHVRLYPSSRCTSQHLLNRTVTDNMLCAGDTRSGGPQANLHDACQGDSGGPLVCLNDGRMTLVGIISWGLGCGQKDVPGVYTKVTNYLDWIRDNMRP
CYP3A4, sequence (P08684 whole entry): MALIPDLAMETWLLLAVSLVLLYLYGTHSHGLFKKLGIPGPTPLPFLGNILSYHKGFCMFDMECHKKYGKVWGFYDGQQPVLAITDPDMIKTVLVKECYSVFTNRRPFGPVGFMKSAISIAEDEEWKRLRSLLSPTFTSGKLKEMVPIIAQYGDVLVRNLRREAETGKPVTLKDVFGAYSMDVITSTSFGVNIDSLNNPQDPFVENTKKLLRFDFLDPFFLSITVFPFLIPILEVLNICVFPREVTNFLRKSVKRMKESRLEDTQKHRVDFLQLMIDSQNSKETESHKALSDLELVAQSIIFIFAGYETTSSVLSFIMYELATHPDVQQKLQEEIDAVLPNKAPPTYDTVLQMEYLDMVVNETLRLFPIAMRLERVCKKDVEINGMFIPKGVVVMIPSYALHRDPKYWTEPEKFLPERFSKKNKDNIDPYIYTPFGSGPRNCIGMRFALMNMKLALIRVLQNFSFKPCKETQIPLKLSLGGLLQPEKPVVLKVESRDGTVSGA
Plasminogen, sequence (P00747 97-580 limits assumed): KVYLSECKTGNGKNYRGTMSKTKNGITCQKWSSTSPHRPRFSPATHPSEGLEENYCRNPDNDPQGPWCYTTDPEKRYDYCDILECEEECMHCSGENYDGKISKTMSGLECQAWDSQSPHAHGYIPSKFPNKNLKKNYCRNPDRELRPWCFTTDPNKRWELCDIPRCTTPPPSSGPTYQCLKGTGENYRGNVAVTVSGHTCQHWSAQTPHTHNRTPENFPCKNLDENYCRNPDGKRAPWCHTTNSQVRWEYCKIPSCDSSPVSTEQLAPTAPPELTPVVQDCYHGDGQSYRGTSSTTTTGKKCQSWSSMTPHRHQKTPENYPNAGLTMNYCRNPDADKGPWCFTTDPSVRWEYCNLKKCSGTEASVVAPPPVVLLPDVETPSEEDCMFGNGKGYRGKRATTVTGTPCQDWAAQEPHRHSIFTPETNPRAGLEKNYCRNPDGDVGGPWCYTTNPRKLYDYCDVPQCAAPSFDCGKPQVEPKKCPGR
Plasminogen, sequence (P00747 581-810 limits assumed): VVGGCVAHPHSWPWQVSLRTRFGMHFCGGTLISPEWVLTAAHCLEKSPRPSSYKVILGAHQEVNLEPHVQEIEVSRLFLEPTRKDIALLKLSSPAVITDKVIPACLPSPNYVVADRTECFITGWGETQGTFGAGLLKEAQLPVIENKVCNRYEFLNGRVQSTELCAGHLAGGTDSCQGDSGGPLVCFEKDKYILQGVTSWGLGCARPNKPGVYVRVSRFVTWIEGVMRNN

| SMILES | inhibition (Coagulation factor X [1]) | 2PT (Plasma [2]) | 2PT (Plasma [4]) | other results |
| --- | --- | --- | --- | --- |
| CS(=N)(=O)Cc1ccc(C(=O)Nc2ccc(Cl)cc2C(=O)Nc2ccc(Cl)cn2)cc1 (configuration not stated) | inactive |  |  |  |
| CS(=O)(=NCCN1CCCC1)c1ccc(C(=O)Nc2ccc(Cl)cc2C(=O)Nc2ccc(Cl)cn2)cc1 (configuration not stated) | 74% | 2.16 µM |  |  |
| C[S+](=N)([O-])c1ccc(C(=O)Nc2ccc(Cl)cc2C(=O)Nc2ccc(Cl)cn2)cc1 (configuration not stated) | 76% | 7.2 µM |  |  |
| CS(=O)(=NC(=O)CN1CCC(O)CC1)c1ccc(C(=O)Nc2ccc(Cl)cc2C(=O)Nc2ccc(Cl)cn2)cc1 (configuration not stated) | 69% | 2.16 µM |  |  |
| CC(C)N(CC(=O)N=S(C)(=O)c1ccc(C(=O)Nc2ccc(Cl)cc2C(=O)Nc2ccc(Cl)cn2)cc1)C(C)C (configuration not stated) | 79% | 1.45 µM |  |  |
| CC(C)NCC(=O)N=S(C)(=O)c1ccc(C(=O)Nc2ccc(Cl)cc2C(=O)Nc2ccc(Cl)cn2)cc1 (configuration not stated) | 97% | 0.95 µM | 1.9 µM | IC50 (Coagulation factor X [3]): 4 nM |
| CCN(CC)CCN=S(C)(=O)c1ccc(C(=O)Nc2ccc(Cl)cc2C(=O)Nc2ccc(Cl)cn2)cc1 (configuration not stated) | 77% | 1.78 µM |  |  |
| CS(=O)(=NC#N)c1ccc(C(=O)Nc2ccc(Cl)cc2C(=O)Nc2ccc(Cl)cn2)cc1 (configuration not stated) | 76% | 2.3 µM |  |  |
| CC(=O)N=[S+](C)([O-])c1ccc(C(=O)Nc2ccc(Cl)cc2C(=O)Nc2ccc(Cl)cn2)cc1 (configuration not stated) | 61% | 7 µM |  |  |
| CS(=O)(=NC(=O)CN1CCCCC1)c1ccc(C(=O)Nc2ccc(Cl)cc2C(=O)Nc2ccc(Cl)cn2)cc1 (configuration not stated) | 97% | 1.73 µM |  |  |
| CCN(CC)CC(=O)N=S(C)(=O)c1ccc(C(=O)Nc2ccc(OC)cc2C(=O)Nc2ccc(Cl)cn2)cc1 (configuration not stated) | 56% | 1.44 µM |  |  |
| CS(=O)(=NC(=O)CN1CCC(C(N)=O)CC1)c1ccc(C(=O)Nc2ccc(Cl)cc2C(=O)Nc2ccc(Cl)cn2)cc1 (configuration not stated) | 49% | 2.54 µM |  |  |
| COc1cc(Cl)cc(C(=O)Nc2ccc(Cl)cn2)c1NC(=O)c1ccc(S(C)(=O)=NC(=O)CN2CCCC2)cc1 (configuration not stated) | 90% | 0.53 µM | 1.1 µM | IC50 (Coagulation factor X [3]): 6.4 nM |
| CS(=O)(=NC(=O)CN1CCCC1)c1ccc(C(=O)Nc2ccc(Cl)cc2C(=O)Nc2ccc(Cl)cn2)cc1 (configuration not stated) | 95% | 0.46 µM | 1.57 µM | IC50 (Coagulation factor X [3]): 3.2 nM |
| O=C(NC[C@H]1CN(c2ccc(N3CCOCC3=O)cc2)C(=O)O1)c1ccc(Cl)s1 [RIVAROXABAN] |  | 0.39 µM | 1.5 µM | Activity (Rattus norvegicus [5]): 50%; Activity (Rattus norvegicus [6]): 63% |
| N=S(=O)(CCO)c1ccc(C(=O)Nc2ccc(Cl)cc2C(=O)Nc2ccc(Cl)cn2)cc1 (configuration not stated) | inactive |  |  |  |
| COCC(=O)N=S(C)(=O)c1ccc(C(=O)Nc2ccc(Cl)cc2C(=O)Nc2ccc(Cl)cn2)cc1 (configuration not stated) | 48% | 3 µM |  |  |
| CCN(CC)CC(=O)N=S(C)(=O)c1ccc(C(=O)Nc2ccc(Cl)cc2C(=O)Nc2ccc(Cl)cn2)cc1 (configuration not stated) [listing 1 of 2 here] |  | 0.68 µM | 0.8 µM | IC50 (Coagulation factor X [3]): 2.1 nM; Ki (Coagulation factor X [7]): 1.1 nM; Ki (Prothrombin): > 20000 nM; Ki (Plasminogen): > 20000 nM; Ki [8]: > 20000 nM; Ki [9]: > 20000 nM; Ki [10]: > 20000 nM; inhibition at 10 µM (CYP3A4): 18% |
| CS(=O)(=NC(N)=O)c1ccc(C(=O)Nc2ccc(Cl)cc2C(=O)Nc2ccc(Cl)cn2)cc1 (configuration not stated) | 41% | 4.1 µM |  |  |

| SMILES | inhibition (Coagulation factor X [1]) | 2PT (Plasma [2]) | 2PT (Plasma [4]) | other results |
| --- | --- | --- | --- | --- |
| CS(=O)(=NC(=O)CN1CCOCC1)c1ccc(C(=O)Nc2ccc(Cl)cc2C(=O)Nc2ccc(Cl)cn2)cc1 (configuration not stated) | 45% |  |  |  |
| CCNCC(=O)N=S(C)(=O)c1ccc(C(=O)Nc2ccc(Cl)cc2C(=O)Nc2ccc(Cl)cn2)cc1 (configuration not stated) | 100% | 0.81 µM | 2.1 µM | IC50 (Coagulation factor X [3]): 2.7 nM; Ki (Coagulation factor X [7]): 1.5 nM; Ki (Prothrombin): > 20000 nM; Ki (Plasminogen): > 20000 nM; Ki [8]: > 20000 nM; Ki [9]: > 20000 nM; Ki [10]: > 20000 nM; inhibition at 10 µM (CYP3A4): 27% |
| COc1cc(Cl)cc(C(=O)Nc2ccc(Cl)cn2)c1NC(=O)c1ccc(S(C)(=N)=O)cc1 (configuration not stated) | 69% |  |  |  |
| CCN(CC)CC(=O)N=S(C)(=O)c1ccc(C(=O)Nc2ccc(Cl)cc2C(=O)Nc2ccc(Cl)cn2)cc1 (configuration not stated) [listing 2 of 2 here] | 100% |  |  | Activity (Rattus norvegicus [11]): Dose-dependent effect; Activity (Rattus norvegicus [12]): Dose-dependent effect |
| CCN(CC)CC(=O)N=S(C)(=O)c1ccc(C(=O)Nc2c(OC)cc(Cl)cc2C(=O)Nc2ccc(Cl)cn2)cc1 (configuration not stated) | 97% | 0.92 µM | 1.3 µM | IC50 (Coagulation factor X [3]): 3.4 nM |
| CNCC(=O)N=S(C)(=O)c1ccc(C(=O)Nc2c(OC)cc(Cl)cc2C(=O)Nc2ccc(Cl)cn2)cc1 (configuration not stated) | 92% | 0.58 µM | 0.9 µM | IC50 (Coagulation factor X [3]): 5.6 nM |
| COc1ccc(NC(=O)c2ccc(S(C)(=N)=O)cc2)c(C(=O)Nc2ccc(Cl)cn2)c1 (configuration not stated) | 42% |  |  |  |
| CS(=O)(=NC(=O)CNC1CCCC1)c1ccc(C(=O)Nc2ccc(Cl)cc2C(=O)Nc2ccc(Cl)cn2)cc1 (configuration not stated) | 100% | 2.26 µM |  |  |
| CNCC(=O)N=S(C)(=O)c1ccc(C(=O)Nc2ccc(Cl)cc2C(=O)Nc2ccc(Cl)cn2)cc1 (configuration not stated) | 93% | 0.77 µM | 1.7 µM | IC50 (Coagulation factor X [3]): 5.4 nM |
| CN(C)CCN=S(C)(=O)c1ccc(C(=O)Nc2ccc(Cl)cc2C(=O)Nc2ccc(Cl)cn2)cc1 (configuration not stated) | 82% | 1.14 µM | 2.01 µM | IC50 (Coagulation factor X [3]): 11.6 nM |
| COc1cccc(C(=O)Nc2ccc(Cl)cn2)c1NC(=O)c1ccc(S(C)(=N)=O)cc1 (configuration not stated) | inactive |  |  |  |
| CN1CCCN(CC(=O)N=S(C)(=O)c2ccc(C(=O)Nc3ccc(Cl)cc3C(=O)Nc3ccc(Cl)cn3)cc2)CC1 (configuration not stated) | 75% | 1.82 µM |  |  |
| CN1CCN(CC(=O)N=S(C)(=O)c2ccc(C(=O)Nc3ccc(Cl)cc3C(=O)Nc3ccc(Cl)cn3)cc2)CC1 (configuration not stated) | 88% | 2.03 µM |  |  |
| CN(C)CC(=O)N=S(C)(=O)c1ccc(C(=O)Nc2ccc(Cl)cc2C(=O)Nc2ccc(Cl)cn2)cc1 (configuration not stated) | 85% | 1.2 µM | 1.4 µM | IC50 (Coagulation factor X [3]): 9 nM |
| CCS(=N)(=O)c1ccc(C(=O)Nc2ccc(Cl)cc2C(=O)Nc2ccc(Cl)cn2)cc1 (configuration not stated) | inactive |  |  |  |
| CS(=O)(=O)N=S(C)(=O)c1ccc(C(=O)Nc2ccc(Cl)cc2C(=O)Nc2ccc(Cl)cn2)cc1 (configuration not stated) | 55% | 2.6 µM |  |  |
| CCN(CC)CC(=O)N=S(C)(=O)c1ccc(C(=O)Nc2ccc(Cl)cc2C(=O)Nc2ccc(Cl)cn2)cc1.Cl (configuration not stated) |  |  |  | Activity (Rattus norvegicus [5]): 32%; Activity (Rattus norvegicus [13]): 71%; Cp (Plasma [14]): < 100 ng/mL; Cmax (Rattus norvegicus [15]): 3280 ng/mL; Tmax (Rattus norvegicus [16]): 2.75 h; t1/2 (Rattus norvegicus [17]): 4.79 h; AUC (Rattus norvegicus [18]): 43510 ng·h/mL; Activity (Rattus norvegicus [6]): 45%; Activity (Rattus norvegicus [19]): 81% |
| CCNCC(=O)N=S(C)(=O)c1ccc(C(=O)Nc2c(OC)cc(Cl)cc2C(=O)Nc2ccc(Cl)cn2)cc1 (configuration not stated) | 100% | 0.74 µM | 1.15 µM | IC50 (Coagulation factor X [3]): 2.4 nM |
